Assay results taken from article PMC12040169 (PLOS Biology, 2025).

Assay: in vitro
Settings: human, hela cells, % viability

Structure (SMILES) | viability at 28.5 h, 10 µM
CC(=O)N(C)c1ccc(NS(=O)(=O)c2cc(C)c(Cl)cc2C)cc1 [CBK045298] | 94.3%
O=S(=O)(Nc1ccc2ncccc2c1)c1ccc(OC(F)(F)F)cc1 [CBK045339] | 99.7%
CCN(C)S(=O)(=O)c1ccc(Cl)c(Cl)c1 [CBK045392] | 113%
CN(CCC#N)S(=O)(=O)c1ccc(Cl)c(Cl)c1 [CBK045396] | 91.8%
O=C(Nc1ccc(F)cc1)c1ccccc1NS(=O)(=O)c1cc(Br)c(Cl)s1 [CBK045405] | 92.8%
CCN(CC)C(=O)c1ccccc1NS(=O)(=O)c1ccc(F)cc1 [CBK045414] | 87.7%
CCN(CC)C(=O)c1ccccc1NS(=O)(=O)c1ccc(C)cc1 [CBK045416] | 88.7%
CCN(CC)C(=O)c1ccccc1NS(=O)(=O)c1ccc(OC)c(OC)c1 [CBK045423] | 92.6%
CCN(CC)C(=O)c1ccccc1NS(=O)(=O)c1cc(Br)c(Cl)s1 [CBK045424] | 91.3%
CCN(CC)C(=O)c1ccccc1NS(=O)(=O)Cc1ccccc1[N+](=O)[O-] [CBK045428] | 99.9%
O=C(Nc1ccc(F)cc1)c1ccccc1NS(=O)(=O)c1ccc(Br)cc1 [CBK045438] | 100%
CCOC(=O)c1ccccc1NS(=O)(=O)c1cc(Cl)sc1Cl [CBK045448] | 85.8%
CCOC(=O)c1ccccc1NS(=O)(=O)c1ccc(C)c([N+](=O)[O-])c1 [CBK045451] | 88.7%
CCOC(=O)N1CCC(NS(=O)(=O)c2cccc3cccnc23)CC1 [CBK045453] | 90.6%
CCOC(=O)N1CCC(NS(=O)(=O)/C=C/c2ccccc2)CC1 [CBK045458] | 107%
CCOC(=O)N1CCC(NS(=O)(=O)c2c(C)noc2C)CC1 [CBK045465] | 102%
CCOC(=O)N1CCC(NS(=O)(=O)c2cc(Br)c(Cl)s2)CC1 [CBK045472] | 95.8%
CCc1nnc(NS(=O)(=O)c2ccc(NC(=O)c3ccc([N+](=O)[O-])cc3)cc2)s1 [CBK045483] | 95.4%
CCc1nnc(NS(=O)(=O)c2ccc(NC(=O)c3ccc(Cl)cc3Cl)cc2)s1 [CBK045493] | 88.5%
CCc1nnc(NS(=O)(=O)c2ccc(NC(=O)c3ccccc3[N+](=O)[O-])cc2)s1 [CBK045494] | 94.2%
Cc1cc(C)c(S(=O)(=O)Nc2nnc(C)s2)c(C)c1 [CBK045497] | 87.5%
Cc1cc(C)c(S(=O)(=O)Nc2nnc(C(F)(F)F)s2)c(C)c1 [CBK045507] | 99.7%
COCc1nnc(NS(=O)(=O)c2ccc(C)cc2)s1 [CBK045523] | 86.7%

Structure (SMILES) | viability at 28.5 h, 10 µM
CS(=O)(=O)Nc1nnc(SCC(=O)Nc2cccc([N+](=O)[O-])c2)s1 [CBK045536] | 102%
Cc1nc(NS(=O)(=O)c2ccc3ccccc3c2)sc1C(=O)O [CBK045548] | 105%
Cc1nc(NS(=O)(=O)Cc2ccccc2)sc1C(=O)O [CBK045552] | 110%
CCCc1ccc(S(=O)(=O)Nc2nc(C)c(C(=O)O)s2)cc1 [CBK045555] | 88.3%
COc1ccc(Br)cc1S(=O)(=O)Nc1nc(C)c(C(=O)O)s1 [CBK045558] | 106%
Cc1nc(NS(=O)(=O)c2cc(Br)c(Cl)s2)sc1C(=O)O [CBK045560] | 96%
Cc1nc(NS(=O)(=O)c2c(C)noc2C)sc1C(=O)O [CBK045562] | 85.7%
Cc1nc(NS(=O)(=O)Cc2ccccc2[N+](=O)[O-])sc1C(=O)O [CBK045564] | 89.5%
Cc1nc(NS(=O)(=O)c2ccc(Oc3ccccc3)cc2)sc1C(=O)O [CBK045566] | 107%
O=S(=O)(c1ccccc1C(F)(F)F)n1ccc2c(N3CCNCC3)nccc21 [CBK045605C] | 99.5%
COc1cc(C2(O)CCN(Cc3ccccc3)C2)ccc1OCc1ccccc1 (stereo not shown) [CBK045620] | 95.9%
CN(C)CCOCc1ncccc1OCCOC1CCCCO1 (stereo not shown) [CBK045662] | 93.1%
COc1ccc([C@@]23CC[C@@H](NC(=O)N(C)c4ccc(C)cc4)C[C@@H]2N(C)CC3)cc1OC [CBK045681T] | 89.2%
COc1ccc([C@@]23CC[C@@H](NC(=O)N(C)c4ccc(Cl)cc4)C[C@@H]2N(C)CC3)cc1OC [CBK045682T] | 90.8%
O=S(=O)(Cc1ccc(Br)cc1)c1cc2c(N3CCNCC3)nccc2s1 [CBK045688C] | 87.4%
O=S(=O)(Cc1cccc(F)c1F)c1cc2c(N3CCNCC3)nccc2s1 [CBK045690C] | 89.1%
COc1ccc([C@@]23CC[C@@H](NC(=O)Nc4ccnc5ccccc45)C[C@@H]2N(C)CC3)cc1OC [CBK045699] | 100%
CCOC(=O)c1cc(-c2cccc(Cl)c2)oc1C [CBK045775] | 104%
O=[N+]([O-])c1ccc(N2CCN(Cc3ccccc3)CC2)cc1NCc1ccccc1 [CBK045841] | 86.9%
Oc1cccnc1N1CCN(Cc2ccccc2)CC1 [CBK045849] | 104%
Cc1cccc(-c2cc(C(=O)O)c(C)o2)c1 [CBK045855] | 87.7%
Cc1ccc(C(=O)N2CC(=O)N(CCO)C2)cc1 [CBK045864] | 110%
CCCC(=O)Nc1c(F)cc(F)cc1OC1CCNCC1 [CBK045892T] | 91.1%
